# Results taken from US20120088737A2, “NOVEL ACYL GUANIDINE DERIVATIVES” (AJINOMOTO CO., INC, priority 2009, published 2012).
# Legend:
# [1] = MDCK membrane permeability (trans-well); type: in vitro ADME, Canine; conditions: dog, apical pH 6.5 / basal pH 7.4, 37° C.
# Method: Pharmacological Test Example 4: MDCK Membrane Permeability
# 1×10^6 MDCK (MADIN-DARBY Canine Kidney) cells were seeded to each well and cultivated on a trans-well for 4 days (Mixed medium; DMEM: F12=1:1). The trans-well consists of a upper chamber into which cells are seeded and a lower chamber which is separated by a porous membrane and each test compound added into the upper chamber penetrates through the porous membrane to be detected in the lower chamber. The trans-well system has been used as a model for cell membrane permeability.
# Buffer solution (pH 6.5) (138 mM NaCl, 2.7 mM KCl, 25 mM D-Glucose, 20 mM MES, 1.25 mM CaCl2, 0.5 mM MgCl2; pH was adjusted with KOH) was added into the upper chamber (Apical side) while Buffer solution (pH 7.4) (138 mM NaCl, 2.7 mM KCl, 25 mM D-Glucose, 20 mM HEPES, 1.25 mM CaCl2, 0.5 mM MgCl2; pH was adjusted with KOH) was added into the lower chamber (basal side). After it was pre-incubated at 37° C. for 20 minutes, 50 μM of each test compound was added thereto and then reacted at 37° C. for 1 hour. The solutions in the upper and lower chambers were collected and the concentrations of each test compound were determined by LC/MS to calculate membrane permeability values (Pm values) by the following equation. Pm[cm/sec]=(Concentration of each test compound in the basal side×1.5 mL)/(3600 sec×1.12 cm^2×Initial concentration of the added compound)
# human NHE3 [2] = molecular target: T1, human NHE3 (Homo sapiens, UniProt P48764); assay: Measurements of NHE3 inhibitory activities (OK26 cells); type: cell-based; conditions: OK26 cells (opossum kidney cells overexpressing human NHE3), measurement time 5 minutes at 37° C.; read-out: hNHE3 IC50
# T1 construct: expressed in transfected cells; host or cells: OK26 cells (opossum kidney OK cells); OK26 ND sublines with opNHE1 reduced by 90% for A3
# T1 sequence (P48764 26-834): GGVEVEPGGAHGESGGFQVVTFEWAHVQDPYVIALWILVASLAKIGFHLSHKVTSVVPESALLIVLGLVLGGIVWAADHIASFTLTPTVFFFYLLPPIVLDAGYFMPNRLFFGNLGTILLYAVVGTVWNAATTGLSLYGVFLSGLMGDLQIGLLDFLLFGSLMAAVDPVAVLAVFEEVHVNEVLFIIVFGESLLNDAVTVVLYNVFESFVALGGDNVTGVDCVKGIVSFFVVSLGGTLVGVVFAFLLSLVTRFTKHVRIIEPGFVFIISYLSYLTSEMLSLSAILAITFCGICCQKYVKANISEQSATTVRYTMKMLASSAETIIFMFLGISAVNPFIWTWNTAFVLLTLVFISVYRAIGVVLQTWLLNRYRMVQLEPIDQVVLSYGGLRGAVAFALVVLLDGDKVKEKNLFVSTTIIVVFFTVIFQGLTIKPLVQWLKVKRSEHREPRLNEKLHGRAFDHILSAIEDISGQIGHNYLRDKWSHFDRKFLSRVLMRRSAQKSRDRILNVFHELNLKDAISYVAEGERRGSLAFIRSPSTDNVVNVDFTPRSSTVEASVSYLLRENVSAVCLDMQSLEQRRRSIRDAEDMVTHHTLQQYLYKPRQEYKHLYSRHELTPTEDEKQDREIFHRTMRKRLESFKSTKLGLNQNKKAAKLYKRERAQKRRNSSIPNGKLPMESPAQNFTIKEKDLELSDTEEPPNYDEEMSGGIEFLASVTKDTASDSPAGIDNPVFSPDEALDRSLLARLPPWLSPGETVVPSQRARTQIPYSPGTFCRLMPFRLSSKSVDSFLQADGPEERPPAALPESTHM
# Method: (§1) HLF cells (Human hepatoma cell line) were used as cells for the test. After 1×10^4 cells/well were seeded to a 96-well plate and cultured for 3 days, they were cultured overnight under a serum-free medium. Then, the cells were incubated in a stain solution of Tetramethylammonium (TMA) Buffer (130 mM TMA-C1, 5 mM KCl, 2 mM CaCl2, 1 mM MgSO2, 25 mM glucose, 20 mM HEPES; pH 7.4) containing 40 mM NH4Cl and 1 μg/mL pH-sensitive fluorescent indicator BCECF-AM at 37° C. for 40 minutes and then BCECF was introduced into the cells. After the cells were washed once with TMA Buffer and incubated in TMA+40 mM NH4Cl solution at 37° C. for 15 minutes, the solution was removed and 20 μL/well of TMA Buffer and 10 μL/well of each test compound solution prepared with TMA Buffer were added to each well. The measurements were carried out by adding 200 μL/well of Na Buffer (130 mM, NaCl, 5 mM KCl, 2 mM CaCl2, 1 mM MgSO2, 1 mM NaH2PO4, 25 mM glucose, 20 mM HEPES; pH 7.4) or TMA Buffer (for base measurement), immediately placing it on FlexStation (Molecular Device) and then, after 10 minutes, measuring, it the two wavelengths of 505 nm (excitation wavelength)/530 nm (emission wavelength) (measurement value) and 440 nm (excitation wavelength)/530 nm (emission wavelength) (isosbestic point value). A NHE activity was calculated by dividing a measurement value by an isosbestic point value and a NHE1 inhibitory activity was calculated by the following equation. NHE1 inhibitory activity (%)=100×(1−(Measurement value [addition of each compound]−Base [addition of TMA Buffer])/(Control [addition of Na Buffer]−Base [addition of TMA Buffer]))
# Pharmacological Test Example 2: Measurements of NHE3 Inhibitory Activities.
# OK26 cells (OK (opossum kidney) cells in which human NHE3 genes are overexpressed) were used as cells for the test. The measurements were carried out in the same manner as described in Pharmacological Test Example 1 except that the measurement time was 5 minutes (at 37° C.) to calculate NHE3 inhibitory activities.
# [3] = test system: renal dysfunction model rats; assay: Continuous administration test in renal dysfunction model rats; type: in vivo, Wistar rats
# Method: Pharmacological Test Example 5: Continuous Administration Test in Renal Dysfunction Model Rats
# After unilateral nephrectomy was performed on 7-week-old Wistar rats and the rats were habituated for 1 week, they were divided into 4 groups based on their body weights, Normal group, Vehicle group, 20 mg/kg of the compound of Example 7-administered group and 50 mg/kg of the compound of Example 7-administered group were assigned to 5 rats, respectively. After the rats were habituated in metabolic cages for 4 days, the test compound the compound of Example 7) dissolved in 0.5% methylcellulose solution was administered via gavage simultaneously with intraperitoneal administration of oleic acid-containing bovine serum albumin (OA-BSA) at a dose of 2 g/animal once daily for 4 days. Vehicles (0.5% methylcellulose solution) were administered to Normal group and Vehicle group instead of the test compound (the compound of Example 7). In addition, no oleic acid-containing bovine serum albumin was administered to Normal group and only unilateral nephrectomy was performed on the Normal group rats. Urine samples were collected from each rat on the last administration day to the next day of the last administration, and blood sampling and autopsy were conducted on the same day.
# human NHE3 [4] = molecular target: T1, human NHE3; assay: Improved version of measurements of NHE3 inhibitory activities (OK26 ND cell lines); type: cell-based; conditions: OK26 ND cell lines (opNHE1 expression reduced by 90%), measurement time 8 minutes at 26° C.; read-out: hNHE3 IC50
# Method: Pharmacological Test Example 3: Improved Version of Measurements of NHE3 Inhibitory Activities
# OK26 cells express endogeneous NHE1 (opNHE1). In order to evaluate NHE3 inhibitory activities more precisely, OK26 ND cell lines in which the expression level of opNHE1 is reduced by 90% were established. Measurements of NEE inhibitory activities were carried out by using the established cell lines in the same manner as described in Pharmacological Test Example 1 except that the measurement time was 8 minutes (at 26° C.) to calculate more precise NHE3 inhibitory activities.
# NHE1 = molecular target: T2, NHE1 (Homo sapiens, UniProt P19634); assay: Measurements of NHE1 inhibitory activities (HLF cells, BCECF pH recovery); type: cell-based; conditions: HLF cells (human hepatoma cell line), measured after 10 minutes; read-out: hNHE1 IC50
# T2 construct: HLF cells (Human hepatoma cell line) were used as cells for the test; endogenous in cells; host or cells: HLF cells (human hepatoma cell line)
# T2 sequence (P19634 whole entry): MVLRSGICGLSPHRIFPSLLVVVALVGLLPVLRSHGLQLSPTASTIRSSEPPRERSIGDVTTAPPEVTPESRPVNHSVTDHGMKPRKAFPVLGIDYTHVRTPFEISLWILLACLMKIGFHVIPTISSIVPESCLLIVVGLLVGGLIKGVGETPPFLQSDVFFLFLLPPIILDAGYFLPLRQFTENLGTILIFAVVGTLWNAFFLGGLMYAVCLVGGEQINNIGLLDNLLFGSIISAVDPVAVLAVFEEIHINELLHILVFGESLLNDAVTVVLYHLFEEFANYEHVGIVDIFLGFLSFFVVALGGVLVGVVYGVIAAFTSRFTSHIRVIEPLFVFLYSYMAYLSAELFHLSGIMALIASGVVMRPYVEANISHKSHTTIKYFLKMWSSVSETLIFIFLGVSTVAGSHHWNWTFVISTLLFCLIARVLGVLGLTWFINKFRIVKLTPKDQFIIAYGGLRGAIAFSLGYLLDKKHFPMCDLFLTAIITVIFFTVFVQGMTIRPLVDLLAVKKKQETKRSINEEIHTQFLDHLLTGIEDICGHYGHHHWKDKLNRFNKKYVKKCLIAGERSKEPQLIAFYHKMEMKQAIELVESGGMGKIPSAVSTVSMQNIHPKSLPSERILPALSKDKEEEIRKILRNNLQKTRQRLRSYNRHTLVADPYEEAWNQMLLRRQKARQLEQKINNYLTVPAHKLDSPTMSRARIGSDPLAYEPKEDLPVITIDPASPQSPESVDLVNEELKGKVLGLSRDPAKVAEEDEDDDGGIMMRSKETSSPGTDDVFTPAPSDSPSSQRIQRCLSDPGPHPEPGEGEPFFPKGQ
# Method: Pharmacological Test Example 1: Measurements of NHE1 Inhibitory Activities
# as §1
# [5] = test compound-administered groups (20 and 50 mg/kg), 4 days, FIG. 2
Structure (SMILES),IC50 (human NHE3 [2]) [nM],IC50 (human NHE3 [4]) [nM],IC50 (NHE1) [nM],further results
"COC(=O)c1ccc(-c2ccccc2/C=C(\C)C(=O)NC(=N)N)cc1 [Example 7, (E)-2′-(3-guanidino-2-methyl-3-oxo-propenyl)-biphenyl-4-carboxylic acid methyl ester]",> 10000,–,–,"Papp A→B at 1 h, 50 μM [1]: 2 ×10⁻⁶ cm/s; tubular damages (beta 2-microglobulin, marker for tubular damage) ([3]; 20 mg/kg and 50 mg/kg via gavage once daily for 4 days, OA-BSA i.p., unilaterally nephrectomized rats, FIG. 1): Significant improvements in tubular damages; tubular damage scores ([3]; test compound administered groups (20 and 50 mg/kg), 4 days, FIG. 3): Reductions in tubular damage scores; appearances of urinary cast (renal pathological images) [3, 5]: significant reductions in appearances of urinary cast; dilation of proximal renal tubules (renal pathological images) [3, 5]: improvements in dilation of proximal renal tubules"
"C/C(=C\c1ccccc1-c1cc(C)c(O)c(C)c1)C(=O)NC(=N)N [Example 22, N-[(E)-3-(3′,5′-dimethyl-4′-hydroxy-biphenyl-2-yl)-2-methyl-acryloyl]-guanidine]",230,230,3100,–
"C/C(=C\c1ccccc1-c1cccc(O)c1)C(=O)NC(=N)N [Example 13, N-[(E)-3-(3′-hydroxy-biphenyl-2-yl)-2-methyl-acryloyl]guanidine]",210,110,–,–
"CC(=O)c1cccc(-c2ccccc2/C=C(\C)C(=O)NC(=N)N)c1 [Example 15, N-[(E)-3-(3′-acetyl-biphenyl-2-yl)-2-methyl-acryloyl]guanidine]",610,360,1200,"Papp A→B at 1 h, 50 μM [1]: 1 ×10⁻⁶ cm/s"
"C/C(=C\c1ccccc1-c1ccc(C(=O)O)cc1)C(=O)NC(=N)N [Example 10, (E)-2′-(3-guanidino-2-methyl-3-oxo-propenyl)-biphenyl-4-carboxylic acid]",1600,–,–,–
"C/C(=C\c1ccccc1-c1ccc(O)cc1)C(=O)NC(=N)N [Example 2, N-[(E)-3-(4′-hydroxy-biphenyl-2-yl)-2-methyl-acryloyl]-guanidine]",110,83,–,–
"C/C(=C\c1ccccc1-c1ccc(B(O)O)cc1)C(=O)NC(=N)N [Example 11, N-[(E)-3-(4′-boronic acid-biphenyl-2-yl)-2-methyl-acryloyl]guanidine]",230,100,1200,–

# More lines, main results first:
IC50 (human NHE3 [2]) [nM],IC50 (human NHE3 [4]) [nM],IC50 (NHE1) [nM],Structure (SMILES),further results
320,230,–,"C/C(=C\c1cc(O)c(O)cc1-c1cccc(O)c1)C(=O)NC(=N)N [Example 36, N-[(E)-2-methyl-3-(4,5,3′-trihydroxy-biphenyl-2-yl)-acryloyl]-guanidine]",–
860,–,–,"C/C(=C\c1ccc(-c2ccc(F)c(O)c2)cc1)C(=O)NC(=N)N [Example 89, N-[(E)-3-(4′-fluoro-3′-hydroxy-biphenyl-4-yl)-2-methyl-acryloyl]-guanidine]",–
180,38,1600,"C/C(=C\c1ccc(C)cc1-c1cccc(O)c1)C(=O)NC(=N)N [Example 37, N-[(E)-3-(3′-hydroxy-5-methyl-biphenyl-2-yl)-2-methyl-acryloyl]-guanidine]",–
190,60,1600,"C/C(=C\c1ccc(C)cc1-c1ccc(O)cc1)C(=O)NC(=N)N [Example 47, N-[(E)-3-(4′-hydroxy-5-methyl-biphenyl-2-yl)-2-methyl-acryloyl]-guanidine]",–
230,230,500,"C/C(=C\c1ccccc1-c1ccc(O)c(O)c1)C(=O)NC(=N)N [Example 26, N-[(E)-3-(3′,4′-dihydroxy-biphenyl-2-yl)-2-methyl-acryloyl]-guanidine]",–
270,–,–,"C/C(=C\c1ccc(-c2cccc(O)c2)cc1)C(=O)NC(=N)N [Example 87, N-[(E)-3-(3′-hydroxy-biphenyl-4-yl)-2-methyl-acryloyl]-guanidine]",–
480,–,–,"C/C(=C\c1ccc(-c2ccccc2O)cc1)C(=O)NC(=N)N [Example 88, N-[3-(2′-hydroxy-biphenyl-4-yl)-2-methyl-acryloyl]-guanidine]",–
470,210,1200,"C/C(=C\c1ccccc1-c1ccc(O)c(F)c1)C(=O)NC(=N)N [Example 24, N-[(E)-3-(3′-fluoro-4′-hydroxy-biphenyl-2-yl)-2-methyl-acryloyl]-guanidine]",–
